Experimental data from US11766468B2, “Method of treating prostate cancer with GnRH antagonist” (priority 2012, dated 2023).
Marks after values point to notes of the source that are not given here.

Assay: CS21 safety: treatment-emergent adverse events (MedDRA SOC/PT), crude incidence, also by subgroup
Format: in vivo
Settings: for Musculoskeletal and connective tissue disorders, % of patients: pooled degarelix
Procedure: The safety variables for this study were assessed on the following: the frequency and severity of adverse events (AEs); the presence of clinically significant changes in laboratory parameters (clinical chemistry, hematology and urinalysis); changes in electrocardiograms (ECGs) and vital signs; changes detected by physical examination; and body weight.
An AE was therefore any unfavorable or unintended sign (including an abnormal laboratory finding), symptom or disease temporally associated with the use of the product, whether or not related to the IMP.
An adverse drug reaction (ADR) was defined as an AE evaluated by the investigator as being probably or possibly related to treatment with the IMP.
AEs were graded according to the National Cancer Institute (NCI) Common Terminology Criteria for Adverse Events (CTCAE). In accordance with the CTCAE criteria, AEs were rated on a five-point scale corresponding to mild, moderate, severe, life-threatening or disabling and death. For those AEs not described in the CTCAE, a separate five-point rating scale was used for rating of the intensity of AEs as follows below:
Safety parameters were evaluated for all patients included in the ITT analysis set, comprising all 610 randomized patients who received at least one dose of study medication. All safety tables include four columns: the three treatment groups described separately, and the pooled degarelix group.
Adverse events were regarded as ‘treatment-emergent’ if they occurred in the time interval from initial dosing to end-of-study. Adverse events were considered ‘pre-treatment’ if they occurred between screening and the initial injections of IMP. As described above, all AEs were classified according to MedDRA (version 10.0) system organ class (SOC), sorted alphabetically, and by preferred term (PT), in decreasing frequency of occurrence. Treatment-emergent AEs were expressed in terms of intensity (using NCI CTCAE) and relationship to study drug.
Using the results from the summary of clinical efficacy (SCE) and summary of clinical safety (SCS) findings, different patient subgroups were analyzed. Subgroup distinguishers included race (white, black, and other), age (<65 years, […], and >75 years), weight (<70 kg, ≥70−<90 kg, and ≥90 kg), body mass index (BMI) (≤20, >20 to 30, and >30 kg/m^2)), region (North-America, Western Europe, Central and Eastern Europe and Other), and stage of prostate cancer (e.g., localized, locally advanced, and metastatic).

[1] = degarelix Total (pooled), leuprolide 7.5 mg
[2] = degarelix Total (pooled), leuprolide 7.5 mg, listed as leuprolide

For `CCNC(=O)[C@@H]1CCCN1C(=O)[C@H](CCCNC(=N)N)NC(=O)[C@H](CC(C)C)NC(=O)[C@@H](CC(C)C)NC(=O)[C@H](Cc1ccc(O)cc1)NC(=O)[C@H](CO)NC(=O)[C@H](Cc1c[nH]c2ccccc12)NC(=O)[C@H](Cc1c[nH]cn1)NC(=O)[C@@H]1CCC(=O)N1` [Leuprolide, leuprolide, reference compound], the “Musculoskeletal and connective tissue disorders, % of patients” value (Age <65) was “(34%)**”, the “Musculoskeletal and connective tissue disorders, % of patients” value (PCA = Localised) was “(25%)” and the “Musculoskeletal and connective tissue disorders, % of patients” value (PCA = Locally advanced) was “(19%)”. For the same compound, the “Musculoskeletal and connective tissue disorders, % of patients” value (PCA = Metastatic) was “(36%)”, the “Musculoskeletal and connective tissue disorders, % of patients” value (Race = White) was “(26%)**” and the “Musculoskeletal and connective tissue disorders, % of patients” value (Weight <70 kg) was “(36%)*”. The “Musculoskeletal and connective tissue disorders, % of patients” value (Weight >=90 kg) was “(32%)*”, the “Deaths (Grade 5), % of patients” value [1] was 4% and the “Deaths (Grade 5), E events” value [1] was 10. The “Deaths (Grade 5), N patients” value [1] was 9, the “Infections & infestations, % of patients” value [1] was “(24%)” and the “Musculoskeletal & connective tissue disorders, % of patients” value [1] was “(26%)”. For the same compound, the “Skin & subcutaneous tissue disorders, % of patients” value [1] was “( 5%)”, the “Urinary tract infection, % of patients” value [1] was “( 9%)” and the “Infections & infestations, % of patients” value [2] was 24%. The “Musculoskeletal & connective tissue disorders, % of patients” value [2] was 26%, the “Urinary tract infection, % of patients” value [2] was 9% and the “Atrioventricular block first degree, % of patients” value (in vivo) was “(6%)*”. For the same compound, the “Bronchitis, % of patients” value (in vivo) was “( 8%)*”, the “Chest pain, % of patients” value (in vivo) was “( 3%)*” and the “Cystitis noninfective, % of patients” value (in vivo) was “(2%)*”. The “Deep vein thrombosis, % of patients” value (in vivo) was “(2%)*”, the “Depression, % of patients” value (in vivo) was “(6%)*” and the “Diarrhoea, % of patients” value (in vivo) was “(8%)*”. The “Dyspnoea, % of patients” value (in vivo) was “(6%)*”, the “Excoriation, % of patients” value (in vivo) was “( 4%)” and the “Fall, % of patients” value (in vivo) was “( 2%)”. The “Gynaecomastia, % of patients” value (in vivo) was “(3%)”, the “Injury, poisoning and procedural complications, % of patients” value (in vivo) was “(12%)**” and the “Investigations, % of patients” value (in vivo) was “(30%)”. The “Libido decreased, % of patients” value (in vivo) was “(3%)”, the “Musculoskeletal stiffness, % of patients” value (in vivo) was “(2%)*” and the “Myocardial ischaemia, % of patients” value (in vivo) was “( 3%)*”. For the same compound, the “Nervous system disorders, % of patients” value (in vivo) was “(10%)”, the “Orthostatic hypotension, % of patients” value (in vivo) was “(2%)*” and the “Pain in extremity, % of patients” value (in vivo) was “( 9%)”. The “Pelvic pain, % of patients” value (in vivo) was “(8%)*”, the “Psychiatric disorders, % of patients” value (in vivo) was “(14%)” and the “Respiratory, thoracic and mediastinal disorders, % of patients” value (in vivo) was “(10%)”. For the same compound, the “Syncope, % of patients” value (in vivo) was “(2%)*” and the “Vascular disorders, % of patients” value (in vivo) was “(30%)”.
